Test results published in patent publication US20010051630A1, “Use of hydroxylamine derivatives, and method and preparations for increasing the tolerance of field crops against weather stresses” (priority 1997, published 2001).
Marks after values point to notes of the source that are not given here.

Key:
HMv09 inbred maize line = test: CSVT, seeds soaked in active agent, HMv09 maize; format: in vivo; conditions: seeds soaked in 10 mg/l active agent
Procedure: (§1) In this experiment the tolerance of maize, soybean and pepper seeds treated with the active agent against cold was tested. This test imposed temperature and oxygen deficiency stresses on the seeds and was carried out according to Barla-Szabó and Dolinka CSVT (Complex Stressing Vigour Test). For a single test, two hundred seeds were soaked for 48 hours at 25° C. and another 48 hours at 5° C in 150 ml distilled water containing the active agent in 10 mg/l concentration. Following the 96 hours of soaking, the seeds were further germinated between rolled wet paper for 96 hours at 25° C. There were 25 seeds in each roll, the rolls were placed vertically into containers and covered with a plastic bag in order to reduce evaporation. During the whole procedure the seeds were kept in darkness. At the end of the experiment the number of normally developing and ungerminated seeds were recorded. The length of the normal seedlings was measured and the average length of the five longest seedlings was calculated. Seedlings longer than 0.33 times the average length of the five longest seedlings were considered to be of high vigour, and low vigour seedlings were shorter than this length.

green peppers = test: CSVT, green peppers; format: in vivo, pepper
Procedure: as §1, with “darkness.” for “darkness. At the end of the experiment the number of normally developing and ungerminated seeds were recorded. The length of the normal seedlings was measured and the average length of the five longest seedlings was calculated. Seedlings longer than 0.33 times the average length of the five longest seedlings were considered to be of high vigour, and low vigour seedlings were shorter than this length.”
(§2) At the end of the experiment the number of normally developing and ungerminated seeds were recorded. The length of the normal seedlings was measured and the average length of the five longest seedlings was calculated. Seedlings longer than 0.33 times the average length of the five longest seedlings were considered to be of high vigour, and low vigour seedlings were shorter than this length.
Under the circumstances of the CSVT test, they increased the length of the sprouts and the roots along with the proportion of the high vigour seedlings. […]

bean cv. Seaway = test: Frost tolerance of beans; format: in vivo; conditions: watering, 10 mg/l; −2° C. for 8 hours
Procedure: Seedlings of bean cv. Seaway were cultivated under normal conditions for the first two weeks, then they were treated with 10 mg/liter and 100 mg/liter concentration solutions of the examined active agents 2 and 1 days before the initiation of the frost tolerance experiments. In the experiment, the plants were kept at −2° C. for 8 hours, then grew under normal conditions for I week, and the survival ratio was determined. 4 trays were used for each experiment and 6 seeds were planted in each tray.

[1] = system: maize of high chilling tolerance (HT) population; test: CSVT, maize population of high chilling tolerance (HT); format: in vivo
Procedure: as §1, with “darkness.” for “darkness. At the end of the experiment the number of normally developing and ungerminated seeds were recorded. The length of the normal seedlings was measured and the average length of the five longest seedlings was calculated. Seedlings longer than 0.33 times the average length of the five longest seedlings were considered to be of high vigour, and low vigour seedlings were shorter than this length.”
as §2
(§3) In the case of a further experiment with maize of low chilling tolerance (LT) and high chilling tolerance (HT) populations [Ref: P. Landi, E. Frascaroli, A. Lovato; EUPHYTICA 64 21-29 (1992)], the following positive effects were found (Table 3.).

soybean cv. Bólyi 44 = test: Drought tolerance of soybeans; format: in vivo; conditions: 6 days hardening; 50 mg/liter in the water; 4 days without watering, one week regeneration
Procedure: Soybeans of soybean cv. Bólyi 44 were hardened for 6 days by withholding the water. This was followed by two days of watering, and the active agent was applied in the water. The concentration of the solution of the active agent was 50 mg/liter. After a 4-day-long cease of watering and a one week regeneration period, the number of surviving plants was recorded.
Watering was ceased for 10 days for a certain group of plants in the experiment. It was observed that almost every plant perished. Each of the 4 surviving plants had previously been treated with the active agent.

Soybean seeds = test: Pearling of soybean seeds, then CSVT; format: in vivo
Procedure: as §1, with “darkness.” for “darkness. At the end of the experiment the number of normally developing and ungerminated seeds were recorded. The length of the normal seedlings was measured and the average length of the five longest seedlings was calculated. Seedlings longer than 0.33 times the average length of the five longest seedlings were considered to be of high vigour, and low vigour seedlings were shorter than this length.”
as §2
Soybean seeds are treated with a pearling agent, which contains 1 mg/ml of N-[3-(1-piperidinyl)propoxy]-3-nitro-benzimidoyl-chloride monohydrochloride (Compound 3) in a 5% aqueous polyvinylalcohol solution. 100 seeds and 1 ml of pearling agent are filled into a glass vessel and while the vessel is rotated, the seeds are coated with the agent and then it is left to dry. For seeds treated this way, we obtained the following results when placed under the conditions of the CSVT test described in Example 7.

bean plants (cv. Seaway) = test: Drought tolerance of beans, part b (7 days hardening); format: in vivo; conditions: 7 days without water, 10 mg/liter and 100 mg/liter solution named, table does not say which
Excerpt: Based on the experiences of our preliminary experiments, the plants were hardened before the application of the active agent by withholding the water for a few days, until the first signs of withering appeared. Then the plants were watered and the active agent was either dissolved in the water, or sprayed to the plants directly. Afterwards, the plants were subjected to different periods of drought according to the given experiment, watered again, and after a week-long regeneration period, the survival ratio was determined.
b) In this experiment, bean plants (cv. Seaway) were hardened for 7 days instead of the 5 days described in Part a. Then a 10 mg/liter and 100 mg/liter concentration solution of the active agent was applied two times a day for two days. Then 7 days without water followed, and after a week-long regeneration period, the results of the experiment were evaluated.

[2] = system: maize of low chilling tolerance (LT) population; test: CSVT, maize population of low chilling tolerance (LT); format: in vivo
Procedure: as §1, with “darkness.” for “darkness. At the end of the experiment the number of normally developing and ungerminated seeds were recorded. The length of the normal seedlings was measured and the average length of the five longest seedlings was calculated. Seedlings longer than 0.33 times the average length of the five longest seedlings were considered to be of high vigour, and low vigour seedlings were shorter than this length.”
as §2, §3

McCall soybeans = test: CSVT, McCall soybeans; format: in vivo, soybean
Procedure: as §1, with “darkness.” for “darkness. At the end of the experiment the number of normally developing and ungerminated seeds were recorded. The length of the normal seedlings was measured and the average length of the five longest seedlings was calculated. Seedlings longer than 0.33 times the average length of the five longest seedlings were considered to be of high vigour, and low vigour seedlings were shorter than this length.”
as §2
When applying the CSVT test, the following results were obtained (Table 4.).

Mo 17 inbred maize line = test: CSVT (Complex Stressing Vigour Test), seeds soaked in active agent, Mo 17 maize; format: in vivo; conditions: seeds soaked in 10 mg/l active agent, * = significant vs control P < 0.05
Procedure: as §1

[3] = 100 seeds pearled with 1 ml of 1 mg/ml in 5% PVA

## Cl.O=[N+]([O-])c1cccc(C(Cl)=NOCCCN2CCCCC2)c1 [Compound 3, N-[3-(1-piperidinyl)propoxy]-3-nitro-benzimidoyl-chloride monohydrochloride]
HMv09 inbred maize line
  Ratio of high vigour plants (%): 40* %
Green peppers
  Ratio of high vigour plants (%): 45* %
Bean cv. Seaway
  Survival (%): 40* %
[1]
  Ratio of high vigour plants %, HT: 94* %
Soybean cv. Bólyi 44
  Survival (%): 33* %
Soybean seeds; [3]
  Ratio of high vigour plants (%), root: 58* %
  Ratio of high vigour plants (%), sprout: 63* %
Soybean seeds; PVA solution containing Compound 3 as pearling agent
  effect on ratio of high vigour plants and length of sprouts and roots: increase the ratio of high vigour plants significantly
Bean plants (cv. Seaway)
  Survival (%): 39* %
[2]
  Ratio of high vigour plants %, LT: 88* %
McCall soybeans
  Ratio of high vigour plants (%): 46* %
Mo 17 inbred maize line
  Ratio of high vigour plants (%): 28* %
